The structures appear in SMILES notation.

Chain of human NaV subtype, like NaV 1.7 (Q15858 whole entry): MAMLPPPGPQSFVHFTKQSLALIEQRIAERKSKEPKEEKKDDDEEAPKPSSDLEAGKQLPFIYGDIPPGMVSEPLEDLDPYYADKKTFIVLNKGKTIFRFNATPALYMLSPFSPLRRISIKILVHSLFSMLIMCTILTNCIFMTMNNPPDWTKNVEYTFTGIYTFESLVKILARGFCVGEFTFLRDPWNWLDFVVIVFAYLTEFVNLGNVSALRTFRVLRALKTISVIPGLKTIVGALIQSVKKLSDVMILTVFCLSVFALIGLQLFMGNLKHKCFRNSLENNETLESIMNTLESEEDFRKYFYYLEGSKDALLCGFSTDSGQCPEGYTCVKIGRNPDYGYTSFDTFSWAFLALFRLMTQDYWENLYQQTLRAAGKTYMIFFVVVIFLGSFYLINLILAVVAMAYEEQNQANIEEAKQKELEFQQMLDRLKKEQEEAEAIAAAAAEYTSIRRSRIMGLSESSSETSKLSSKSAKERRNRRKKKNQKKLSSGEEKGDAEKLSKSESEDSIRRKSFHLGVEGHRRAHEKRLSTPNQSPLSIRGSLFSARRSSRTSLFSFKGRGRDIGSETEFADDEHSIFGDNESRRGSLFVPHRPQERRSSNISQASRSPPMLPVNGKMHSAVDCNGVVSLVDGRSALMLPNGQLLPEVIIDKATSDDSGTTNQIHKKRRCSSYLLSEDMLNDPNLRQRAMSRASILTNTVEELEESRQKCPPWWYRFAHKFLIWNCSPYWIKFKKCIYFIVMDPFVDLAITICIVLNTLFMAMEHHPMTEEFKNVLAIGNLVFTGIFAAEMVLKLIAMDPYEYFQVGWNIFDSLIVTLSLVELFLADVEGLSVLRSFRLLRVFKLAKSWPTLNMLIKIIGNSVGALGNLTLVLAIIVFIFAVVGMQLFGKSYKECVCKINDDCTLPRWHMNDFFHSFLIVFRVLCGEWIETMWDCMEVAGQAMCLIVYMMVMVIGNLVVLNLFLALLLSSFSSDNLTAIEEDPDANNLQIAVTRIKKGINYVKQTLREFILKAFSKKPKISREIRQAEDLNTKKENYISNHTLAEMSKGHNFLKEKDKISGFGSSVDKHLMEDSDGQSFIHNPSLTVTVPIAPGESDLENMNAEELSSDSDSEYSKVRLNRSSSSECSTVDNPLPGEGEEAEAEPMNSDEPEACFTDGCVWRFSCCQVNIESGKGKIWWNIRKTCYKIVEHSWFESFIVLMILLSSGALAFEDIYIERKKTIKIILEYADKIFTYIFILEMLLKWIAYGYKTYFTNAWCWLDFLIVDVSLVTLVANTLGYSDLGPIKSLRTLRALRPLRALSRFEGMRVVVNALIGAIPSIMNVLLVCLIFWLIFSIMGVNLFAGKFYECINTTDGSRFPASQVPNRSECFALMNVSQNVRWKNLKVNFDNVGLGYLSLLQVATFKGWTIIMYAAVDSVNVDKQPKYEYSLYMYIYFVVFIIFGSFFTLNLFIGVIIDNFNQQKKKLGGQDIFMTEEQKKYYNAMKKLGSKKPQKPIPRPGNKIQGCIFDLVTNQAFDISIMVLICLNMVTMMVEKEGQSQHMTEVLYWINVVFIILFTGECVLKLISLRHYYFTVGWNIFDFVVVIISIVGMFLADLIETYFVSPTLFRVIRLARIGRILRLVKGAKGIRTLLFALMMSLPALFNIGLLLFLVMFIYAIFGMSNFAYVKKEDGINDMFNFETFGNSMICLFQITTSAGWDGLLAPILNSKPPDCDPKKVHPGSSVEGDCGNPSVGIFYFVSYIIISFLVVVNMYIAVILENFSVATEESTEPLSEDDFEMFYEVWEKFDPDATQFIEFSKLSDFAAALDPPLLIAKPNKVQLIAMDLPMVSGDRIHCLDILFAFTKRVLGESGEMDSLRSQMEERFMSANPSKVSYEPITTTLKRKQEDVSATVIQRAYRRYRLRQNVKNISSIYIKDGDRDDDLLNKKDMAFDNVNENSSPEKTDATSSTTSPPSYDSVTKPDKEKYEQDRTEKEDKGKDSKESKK

This assay has as its target human NaV subtype, like NaV 1.7 (Homo sapiens, UniProt Q15858). Put plainly: E-VIPR optical membrane potential assay with electrical stimulation. Type of assay: cell-based. As to conditions: active against one or more sodium channels; assay and NaV subtype not specified for Table 3; read-out: IC50 Binned Activity Data. The text has this: Sodium channels are voltage-dependent proteins that can be activated by inducing membrane voltage changes by applying electric fields. […] The instrument comprises a microtiter plate handler, an optical system for exciting the coumarin dye while simultaneously recording the coumarin and oxonol emissions, a waveform generator, a current- or voltage-controlled amplifier, and a device for inserting electrodes in well. Under integrated computer control, this instrument passes user-programmed electrical stimulus protocols to cells within the wells of the microtiter plate.
24 hours before the assay on E-VIPR, HEK cells expressing human NaV subtype, like NaV 1.7, are seeded in 384-well poly-lysine coated plates at 15,000-20,000 cells per well. Other subtypes are performed in an analogous mode in a cell line expressing the NaV of interest. […] Cells are grown in vented cap flasks, in 90% humidity and 10% CO2, to 100% confluence. They are usually split by trypsinization 1:10 or 1:20, depending on scheduling needs, and grown for 2-3 days before the next split.
To make the solution Add volume of 10% Pluronic F127 stock equal to volumes of CC2-DMPE+DiSBAC6(3). The order of preparation is first mix Pluronic and CC2-DMPE, then add DiSBAC6(3) while vortexing, then add Bath1+β-Cyclodextrin.
1) Pre-spot compounds (in neat DMSO) into compound plates. […] Final compound plate volume will be 80 μL (80-fold intermediate dilution from 1 μL DMSO spot; 160-fold final dilution after transfer to cell plate).
2) Prepare Hexyl Dye Solution.
3) Prepare cell plates. On the day of the assay, medium is aspirated and cells are washed three times with 100 μL of Bath1 Solution, maintaining 25 μL residual volume in each well.
4) Dispense 25 μL per well of Hexyl Dye Solution into cell plates. Incubate for 20-35 minutes at room temp or ambient conditions.
5) Dispense 80 μL per well of Bath1 into compound plates. Acid Yellow-17 (1 mM) is added and Potassium Chloride can be altered from 4.5 to 20 mM depending on the NaV subtype and assay sensitivity.
6) Wash cell plates three times with 100 μL per well of Bath1, leaving 25 μL of residual volume. Then transfer 25 uL per well from Compound Plates to Cell Plates. Incubate for 20-35 minutes at room temp/ambient condition
7) Read Plate on E-VIPR. Use the current-controlled amplifier to deliver stimulation wave pulses for typically 9 seconds and a scan rate of 400 Hz. A pre-stimulus recording is performed for 0.5 seconds to obtain the un-stimulated intensities baseline. The stimulatory waveform is applied for 9 seconds followed by 0.5 seconds of post-stimulation recording to examine the relaxation to the resting state. The stimulatory waveform of the electrical stimulation is specific for each cell type and can vary the magnitude, duration and frequency of the applied current to provide an optimal assay signal.
Data are analyzed and reported as normalized ratios of background-subtracted emission intensities measured in the 460 nm and 580 nm channels. Background intensities are then subtracted from each assay channel. Background intensities are obtained by measuring the emission intensities during the same time periods from identically treated assay wells in which there are no cells. The response as a function of time is then reported as the ratios obtained using the following formula: […]
The data is further reduced by calculating the initial (Ri) and final (Rf) ratios. These are the average ratio values during part or all of the pre-stimulation period, and during sample points during the stimulation period. The response to the stimulus R=Rf/Ri is then calculated and reported as a function of time.
Control responses are obtained by performing assays in the presence of a compound with the desired properties (positive control), such as tetracaine, and in the absence of pharmacological agents (negative control). Responses to the negative (N) and positive (P) controls are calculated as above. The compound antagonist activity A is defined as: […]
In the case of `CCCOCCN1CC(COC)OC2(CCN(C(=O)c3ccc(OC(C)C)c(C)c3)CC2)C1` (stereo not shown) [Compound 107], the IC50 is below 2000 nM.

With `Cc1cc(S(C)(=O)=O)ccc1C(=O)N1CCC2(CC1)CN(CC(F)(F)F)CC(c1ccccc1)O2` (stereo not shown) [Compound 108], the IC50 is above 5000 nM. For the compound `CC(C)CS(=O)(=O)c1ccc(C(=O)N2CCC3(CC2)CN(CC(F)F)CC(c2ccc(F)cc2)O3)cc1` (stereo not shown) [Compound 109], the IC50 was in the range of 2000 to 5000 nM. For `CC(C)Oc1ccc(C(=O)N2CCC3(CC2)CN(CC(F)(F)F)CC(c2cc[nH]n2)O3)cc1Cl` (stereo not shown) [Compound 110], the half-inhibitory concentration (IC50) is below 2000 nM. On to `COCC1CN(CC(C)C)CC2(CCN(C(=O)c3ccc(OC(C)C)c(C)c3)CC2)O1` (stereo not shown) [Compound 111], for which the concentration for half-maximal inhibition (IC50) was below 2000 nM. Under `CCC(CC)CN1CC(COC)OC2(CCN(C(=O)c3ccc(OC(C)C)c(C)c3)CC2)C1` (stereo not shown) [Compound 112] stands below 2000 nM; under `COCC1CN(CC(C)=O)CC2(CCN(C(=O)c3ccc(OC(C)C)c(C)c3)CC2)O1` (stereo not shown) [Compound 113], above 5000 nM; under `Cc1cc(C(=O)N2CCC3(CC2)CN(c2ncccn2)CC(COC(C)C)O3)ccc1OC(C)C` (stereo not shown) [Compound 114], below 2000 nM. Regarding `COc1cc(C(=O)N2CCC3(CC2)CN(CC#N)CC(c2ccccc2)O3)ccc1C(C)(C)O` (stereo not shown) [Compound 115], the IC50 lay within 2000 to 5000 nM. As to `Cc1nc2cccc(C(=O)N3CCC4(CC3)CN(CC(F)(F)F)CC(c3ccccc3)O4)c2o1` (stereo not shown) [Compound 116], the concentration for half-maximal inhibition (IC50) was below 2000 nM. Turning to `Cc1cc(C(=O)N2CCC3(CC2)CN(CC(F)(F)F)CC(c2ccccc2)O3)ccc1OCCCO` (stereo not shown) [Compound 117], the IC50 was below 2000 nM. The figure for `O=C(c1cc(Cl)cc(Cl)c1)N1CCC2(CC1)CN(CC(F)(F)F)CC(c1ccccc1)O2` (stereo not shown) [Compound 118] is above 5000 nM; for `CC(C)Oc1ccc(C(=O)N2CCC3(CC2)CN(CC(F)(F)F)CC(c2ccccc2)O3)cc1` (stereo not shown) [Compound 119] it is below 2000 nM. `COCC1CN(c2ncccn2)CC2(CCN(C(=O)c3ccc(OC(C)C)c(C)c3)CC2)O1` (stereo not shown) [Compound 120]: the IC50 is below 2000 nM.

For the compound `COCC1CN(C2CCN(C(C)=O)CC2)CC2(CCN(C(=O)c3ccc(OC(C)C)c(C)c3)CC2)O1` (stereo not shown) [Compound 121], the IC50 was above 5000 nM. In the case of `Cc1cc(C(=O)N2CCC3(CC2)CN(CC(F)F)CC(c2ccc(Cl)cc2)O3)ccc1OC(C)C` (stereo not shown) [Compound 122], the IC50 is above 5000 nM. Turning to `Cc1cc(C(=O)N2CCC3(CC2)CN(CC(F)(F)F)[C@H](C)[C@@H](c2ccccc2)O3)ccc1OC(C)C` [Compound 123], the IC50 fell in the range of 2000 to 5000 nM. Consider `COCC1CN(c2ccc(C(F)(F)F)cc2)CC2(CCN(C(=O)c3ccc(OC(C)C)c(C)c3)CC2)O1` (stereo not shown) [Compound 124], for which the IC50 is below 2000 nM. Consider `COCCOc1ccc(C(=O)N2CCC3(CC2)CN(c2ncccn2)CC(COC)O3)cc1OC` (stereo not shown) [Compound 125], for which the concentration for half-maximal inhibition (IC50) is above 5000 nM. With `COCC1CN(c2cc(OC)ccn2)CC2(CCN(C(=O)c3ccc(OC(C)C)c(C)c3)CC2)O1` (stereo not shown) [Compound 126], the IC50 was below 2000 nM. The figure for `Cc1cc(C(=O)N2CCC3(CC2)CN(CC(F)(F)F)CC(C(C)(C)O)O3)ccc1OC(C)C` (stereo not shown) [Compound 127] is 2000 to 5000 nM. Consider `COc1cc(C(=O)N2CCC3(CC2)CN(CC(F)(F)F)CC(c2ccccc2)O3)ccc1OC(C)(C)C` (stereo not shown) [Compound 128], for which the IC50 was below 2000 nM. Regarding `CC#CCN1CC(CC)OC2(CCN(C(=O)c3ccc(C(C)(C)C)c(OC)c3)CC2)C1` (stereo not shown) [Compound 129], the IC50 was below 2000 nM. Turning to `CCC1CN(c2ncccn2)CC2(CCN(C(=O)c3ccc(C4=CCCC4)c(F)c3)CC2)O1` (stereo not shown) [Compound 130], the 50% inhibitory concentration (IC50) is above 5000 nM. For the compound `COCC1CN(C2CCSCC2)CC2(CCN(C(=O)c3ccc(OC(C)C)c(C)c3)CC2)O1` (stereo not shown) [Compound 131], the IC50 is below 2000 nM. Under `COCC1CN(Cc2cc(C)on2)CC2(CCN(C(=O)c3ccc(OC(C)C)c(C)c3)CC2)O1` (stereo not shown) [Compound 132] stands 2000 to 5000 nM. On to `CC(C)(O)Cc1ccc(C(=O)N2CCC3(CC2)CN(CC(F)(F)F)CC(c2ccccc2)O3)cc1` (stereo not shown) [Compound 133], for which the IC50 was below 2000 nM. Consider `COCC1CN(CC2CCOCC2)CC2(CCN(C(=O)c3ccc(OC(C)C)c(C)c3)CC2)O1` (stereo not shown) [Compound 134], for which the IC50 is above 5000 nM. Under `CC(C)Oc1ccc(C(=O)N2CCC3(CC2)CN(CC(F)(F)F)CC(c2ccccc2)O3)c(F)c1` (stereo not shown) [Compound 135] stands below 2000 nM; under `COCC1CN(c2ncccn2)CC2(CCN(C(=O)c3ccc(OC(C)C)cc3)CC2)O1` (stereo not shown) [Compound 136], 2000 to 5000 nM; under `CC(C)Oc1ccc(C(=O)N2CCC3(CC2)CN(CC(F)F)CC(c2ncc(C(C)(C)C)o2)O3)cc1F` (stereo not shown) [Compound 137], below 2000 nM. Consider `Cc1cc(C(=O)N2CCC3(CC2)CN(CC(F)(F)F)CC(c2ccccc2)O3)ccc1OCC(C)(C)O` (stereo not shown) [Compound 138], for which the IC50 is below 2000 nM. Take `CC#CCN1CC(CF)OC2(CCN(C(=O)c3ccc(OC(C)C)c(C)c3)CC2)C1` (stereo not shown) [Compound 139]: the IC50 was above 5000 nM. For `COCC1CN(c2ccccn2)CC2(CCN(C(=O)c3ccc(OC(C)C)c(C)c3)CC2)O1` (stereo not shown) [Compound 140], the IC50 is below 2000 nM.

Consider `CC#CCN1CC(CC)OC2(CCN(C(=O)c3ccc(OC)c(C)c3)CC2)C1` (stereo not shown) [Compound 141], for which the IC50 is above 5000 nM. Turning to `CCC1CN(Cc2ccccc2)CC2(CCN(C(=O)c3ccc(OC(C)C)c(C)c3)CC2)O1` (stereo not shown) [Compound 142], the IC50 was above 5000 nM. Regarding `COCCOc1ccc(C(=O)N2CCC3(CC2)CN(CC(F)(F)F)CC(c2ccccc2)O3)cc1OC` (stereo not shown) [Compound 143], the IC50 is below 2000 nM. For `COc1cccc(C(=O)N2CCC3(CC2)CN(CC(F)F)CC(c2ccccc2)O3)n1` (stereo not shown) [Compound 144], the half-inhibitory concentration (IC50) fell in the range of 2000 to 5000 nM. Consider `CCOc1ccc(C(=O)N2CCC3(CC2)CN(CC)CC(c2ccccc2)O3)cc1CO` (stereo not shown) [Compound 145], for which the IC50 is above 5000 nM. Consider `Cc1cc(C(=O)N2CCC3(CC2)CN(CC(F)(F)F)CC(CCO)O3)ccc1OC(C)C` (stereo not shown) [Compound 146], for which the IC50 fell in the range of 2000 to 5000 nM. `COCC1CN(CCC(C)C)CC2(CCN(C(=O)c3ccc(OC(C)C)c(C)c3)CC2)O1` (stereo not shown) [Compound 147]: the IC50 was below 2000 nM. The figure for `Cc1noc(C2CN(Cc3ccccc3)CC3(CCN(C(=O)c4ccc(OC(C)C)c(C)c4)CC3)O2)n1` (stereo not shown) [Compound 148] is 2000 to 5000 nM; for `Cc1noc(C2CN(CC(F)(F)F)CC3(CCN(C(=O)c4ccc(OC(C)C)c(C)c4)CC3)O2)n1` (stereo not shown) [Compound 149] it is 2000 to 5000 nM; for `Cc1cc(C(=O)N2CCC3(CC2)CN(CC(F)F)CC(c2[nH]ncc2C)O3)ccc1OC(C)C` (stereo not shown) [Compound 150] it is below 2000 nM. Take `O=C(c1ccc(C2(O)COC2)cc1)N1CCC2(CC1)CN(CC(F)(F)F)CC(c1ccccc1)O2` (stereo not shown) [Compound 151]: the IC50 is above 5000 nM. With `COc1cc(C(=O)N2CCC3(CC2)CN(CC(F)(F)F)CC(c2ncc(C)s2)O3)ccc1OC(C)C` (stereo not shown) [Compound 152], the IC50 is below 2000 nM. For `Cc1cc(C(=O)N2CCC3(CC2)CN(CC(F)F)CC(c2ccccc2)O3)ccc1OC(C)C` (stereo not shown) [Compound 153], the IC50 was below 2000 nM. For `CC#CCN1CC(F)(F)OC2(CCN(C(=O)c3ccc(OC(C)C)c(C)c3)CC2)C1` [Compound 154], the IC50 is above 5000 nM. Under `O=C(c1cccc(Cl)c1)N1CCC2(CC1)CN(CC(F)(F)F)CC(c1ccccc1)O2` (stereo not shown) [Compound 155] stands above 5000 nM; under `CC(C)Oc1ccc(C(=O)N2CCC3(CC2)CN(CC(F)F)CC(c2ccc(F)cc2)O3)cc1Cl` (stereo not shown) [Compound 156], below 2000 nM. Take `Cc1nc(C(=O)N2CCC3(CC2)CN(CC(F)F)CC(c2ccccc2)O3)ccc1C#N` (stereo not shown) [Compound 157]: the IC50 is above 5000 nM. As to `CCN1CC(c2ccccc2)OC2(CCN(C(=O)c3ccc(C(C)(C)O)cc3)CC2)C1` (stereo not shown) [Compound 158], the IC50 was above 5000 nM.

The IC50 is the concentration that gives 50% inhibition.

Values taken from patent US9181273B2, “Morpholine-spirocyclic piperidine amides as modulators of ion channels” (Vertex Pharmaceuticals Incorporated, priority 2011, dated 2015).
